Measurements published in ChEMBL document CHEMBL5506000, “Design, synthesis and antibacterial evaluation of low toxicity amphiphilic-cephalosporin derivatives” (Eur J Med Chem, 2024).
The source made the active and inactive calls. The rule behind the calls is not given here.

Experiments:
Staphylococcus aureus [1] = test: Antibacterial activity against Staphylococcus aureus assessed as inhibition of metabolic activity at MIC; type: functional
[2] = Hemolytic activity in sheep RBC; type: toxicity, cell-based, Ovis aries, Erythrocyte; conditions: sheep red blood cells (erythrocytes)
Cell membrane [3] = test: Induction of inner membrane permeabilization in Staphylococcus aureus assessed as increase in fluorescence intensity at 16 microg/ml by PI staining based analysis; type: cell membranes; conditions: dose 16.0 µg/ml
Cell membrane [4] = test: Induction of cell membrane depolarization in Staphylococcus aureus assessed as increase in fluorescence intensity at 16 microg/ml by DiSC3(5) dye based assay; type: cell membranes; conditions: dose 16.0 µg/ml
Staphylococcus aureus [5] = test: Antibacterial activity against Staphylococcus aureus ATCC 29213 by CLSI protocol based assay; type: functional
[6] = Cytotoxicity against rat HBZY-1 cells assessed as reduction in cell viability by CCK-8 assay; type: toxicity, cell-based
Staphylococcus aureus [7] = test: Antibacterial activity against Staphylococcus aureus assessed as reduction in metabolic activity at sub-MIC; type: functional, organism-based
Staphylococcus aureus [8] = test: Resistance development in 20 day passaged Staphylococcus aureus assessed as levofloxacin antibacterial activity; type: functional, organism-based
[9] = Cytotoxicity against HUVEC assessed as viable cells at 128 microg/ml incubated for 48 hrs by CCK-8 assay relative to control; type: toxicity, cell-based; conditions: human, at 128 µg/mL, read-out: Activity
Staphylococcus aureus [10] = test: Drug resistance, ratio of MIC for Staphylococcus aureus measured within 20 days to MIC for Staphylococcus aureus; type: functional
Escherichia coli [11] = test: Antibacterial activity against Escherichia coli ATCC 25922 by CLSI protocol based assay; type: functional
Cell membrane [12] = test: Induction of cell membrane damage in Staphylococcus aureus assessed as protein leakage at 8 to 32 microg/ml; type: cell membranes; conditions: dose 8-32 µg/ml
Escherichia coli [13] = test: Induction of morphological changes in Escherichia coli assessed as cell elongation at 8 times of MIC incubated for 6 hrs by scanning electron microscopic analysis; type: functional, organism-based
Staphylococcus aureus [14] = test: Antibacterial activity against methicillin resistant Staphylococcus aureus clinical isolates; type: functional
[15] = Cytotoxicity against HUVEC assessed as reduction in cell viability by CCK-8 assay; type: toxicity, cell-based; conditions: human, HUVEC cells
[16] = Hemolytic activity in sheep RBC assessed as hemolysis rate at 1280 microg/ml relative to control; type: toxicity, cell-based, Ovis aries, Erythrocyte; conditions: sheep red blood cells (erythrocytes), dose 1280 µg/ml, read-out: Activity
Staphylococcus aureus [17] = test: Post-antibiotic effect against Staphylococcus aureus at 1 times of MIC incubated for 1 hrs; type: functional
Staphylococcus aureus [18] = test: Resistance development in 20 day passaged Staphylococcus aureus assessed as ampicillin antibacterial activity; type: functional, organism-based
Enterococcus faecalis = test: Antibacterial activity against Enterococcus faecalis ATCC 29212 by CLSI protocol based assay; type: functional
Staphylococcus aureus [19] = test: Antibacterial activity against methicillin resistant Staphylococcus aureus clinical isolates assessed as 50% inhibition of bacterial growth; type: functional
Staphylococcus aureus [20] = test: Antibacterial activity against Staphylococcus aureus in presence of 50% serum; type: functional
Staphylococcus aureus [21] = test: Resistance development in 20 day passaged Staphylococcus aureus assessed as cefotaxime antibacterial activity; type: functional, organism-based
Staphylococcus aureus [22] = test: Resistance development in 20 day passaged Staphylococcus aureus assessed as beta-lactam antibacterial activity; type: functional, organism-based
Staphylococcus aureus [23] = test: Antibacterial activity against Staphylococcus aureus measured after 3 to 6 hrs in presence of 50% plasma; type: functional, organism-based; conditions: time 3-6 hrs
[24] = Cytotoxicity against rat HBZY-1 cells assessed as viable cells at 128 microg/ml incubated for 48 hrs by CCK-8 assay relative to control; type: toxicity, cell-based; conditions: at 128 µg/mL, read-out: Activity
[25] = system: Stenotrophomonas maltophilia; test: Antibacterial activity against Stenotrophomonas maltophilia ATCC 17808 by CLSI protocol based assay; type: functional
Staphylococcus aureus [26] = test: Post-antibiotic effect against Staphylococcus aureus at 4 times of MIC incubated for 1 hrs; type: functional
Staphylococcus aureus [27] = test: Resistance development in 20 day passaged Staphylococcus aureus assessed as ciprofloxacin antibacterial activity; type: functional, organism-based
Staphylococcus aureus [28] = test: Antibacterial activity against Staphylococcus aureus in presence of 50% plasma; type: functional
Cell membrane [29] = test: Induction of cell membrane damage in Staphylococcus aureus assessed as nucleic acid leakage at 8 to 32 microg/ml by absorbance based analysis; type: cell membranes; conditions: dose 8-32 µg/ml
Staphylococcus aureus [30] = test: Drug resistance, ratio of MIC for Staphylococcus aureus measured after 20 days to MIC for Staphylococcus aureus; type: functional
Staphylococcus aureus [31] = test: Antibacterial activity against early exponential growth phase Staphylococcus aureus assessed as reduction in bacterial colony at 8 times of MIC measured at 8 to 24 hrs by time-kill kinetics assay; type: functional, organism-based; conditions: time 8-24 hrs
Staphylococcus aureus [32] = test: Drug resistance, ratio of MIC for Staphylococcus aureus measured after 10 days to MIC for Staphylococcus aureus; type: functional

| Compound | inhibition (INH) (Staphylococcus aureus [1]) [%] | HC50 [2] [µg/mL] | Activity (Cell membrane [3]) | Activity (Cell membrane [4]) | MIC (Staphylococcus aureus [5]) [µg/mL] | CC50 [6] [µg/mL] | Activity (Staphylococcus aureus [7]) | Activity (Staphylococcus aureus [8]) | MIC (Escherichia coli [11]) [µg/mL] | Activity (Escherichia coli [13]) | MIC (Staphylococcus aureus [14]) [µg/mL] | CC50 [15] [µg/mL] | PAE (Staphylococcus aureus [17]) [h] | Activity (Staphylococcus aureus [18]) | MIC (Enterococcus faecalis) [µg/mL] | MIC50 (Staphylococcus aureus [19]) [µg/mL] | Activity (Staphylococcus aureus [21]) | Activity (Staphylococcus aureus [22]) | Activity (Staphylococcus aureus [23]) | MIC [25] [µg/mL] | further results |
| --- | --- | --- | --- | --- | --- | --- | --- | --- | --- | --- | --- | --- | --- | --- | --- | --- | --- | --- | --- | --- | --- |
| CCCCCCCCNC(=O)c1ccc[n+](CC2=C(C(=O)[O-])N3C(=O)[C@@H](NC(=O)/C(=N\OC)c4csc(N)n4)[C@H]3SC2)c1.O=C(O)C(F)(F)F | ~100 | > 1280 | inactive | inactive | 0.5 | > 128 | Active | Active | 8 | Active | 2 | > 128 | 1.58 | Active | 4 | 2 | Active | Active | Active | 8 | viability at 48 h, 128 microg/ml [9]: 100%; Ratio (Staphylococcus aureus [10]): <4; Activity (Cell membrane [12]): inactive; hemolysis at 1280 microg/ml [16]: 2.85%; MIC (Staphylococcus aureus [20]): 0.5 µg/mL; viability at 48 h, 128 microg/ml [24]: 92.6%; PAE (Staphylococcus aureus [26]): 2.08 h; Activity (Staphylococcus aureus [27]): Active; MIC (Staphylococcus aureus [28]): 1 µg/mL; Activity (Cell membrane [29]): inactive |
| CO/N=C(\C(=O)N[C@@H]1C(=O)N2C(C(=O)[O-])=C(C[n+]3ccccc3)CS[C@H]12)c1csc(N)n1.O=C(O)C(F)(F)F | ~100 | > 1280 | inactive | inactive | 1 | > 128 | Active | inactive | 0.063 | Active | 2 | > 128 | 1.48 | inactive | 4 | 2 | inactive | inactive | Active | 0.063 | Ratio (Staphylococcus aureus [30]): 32; Activity (Staphylococcus aureus [31]): Active; Ratio (Staphylococcus aureus [32]): 8; PAE (Staphylococcus aureus [26]): 2.1 h; Activity (Staphylococcus aureus [27]): inactive |
